Measurements: patent US9060945B2, “Use of danielone and derivatives thereof in skin care” (DSM IP Assets B.V., priority 2012, dated 2015)

Experiments:
Type in all cases: cell-based
[1] = tested on: Normal human melanocytes moderately pigmented (HEMn-MP); experiment: Quantification of melanin synthesis in cell culture; settings: 3 days, baseline = 100, 405 nm
Description: Normal human melanocytes moderately pigmented (HEMn-MP) were seeded in 96 well cell culture plates (20′000 cells per well) and grown to sub-confluence for three days in a 1:2 mixture of M2-Medium (Clonetics) and Promocell-Medium together ‘Culture medium’. Culture medium was exchanged with Culture Medium containing compound and melanogenesis progressed for another three days in an incubator at a temperature of 37° C. and at 5% CO2 atmosphere. Including cell layer and culture supernatant total melanin was extracted using 1.7M KOH with shaking at 300 rpm for approximately 1 hour at room temperature. We measured melanin content at 405 nm in an absorbance plate reader. We use phenylthiourea (PTU) as a positive control at a concentration of 0.0152% (1 mM). PTU is a tyrosinase inhibitor (Poma 1999) and is commonly used as a reference in cell pigmentation assays (see e.g. Le Pape 2008).

[2] = tested on: Normal human melanocytes moderately pigmented (HEMn-MP); experiment: Cytotoxicity, MTT assay; settings: 3 days incubation, OD 550 nm
Description: Cytotoxicity was measured using the MTT assay (Roche). In brief: Normal human melanocytes moderately pigmented (HEMn-MP) were precultured for 24 hrs, and then incubated with compounds for three days. We then added MTT (Roche) labeling reagent 10 μl to each well (final concentration 0.5 mg/ml) and incubated the microtiterplate for 4 hrs at 37° C., and under 5% CO2. After addition of 100 μl solubilisation solution into each well, the plate was allowed to stand overnight in the incubator (37° C., 5% CO2. The absorbance OD 550 nm was measured in an absorbance plate reader (ELX 800 BIO-TEK Instrument) and the data is shown in Table 1.

[3] = tested on: Normal human melanocytes NHM (HEMn-MP); experiment: Effect on melanogenesis, comparative example (melanin synthesis in cell culture); settings: for skin whitening activity (in words): at all three concentrations tested; for % melanin inhibition: 3 days, 405 nm
Description: Normal human melanocytes NHM (HEMn-MP) were seeded in 96 well cell culture plates (20′000 cells per well) and grown to sub-confluence for three days in a 1:2 mixture of M2-Medium (Clonetics) and Promocell-Medium together ‘Culture medium’. Culture medium was exchanged with Culture Medium containing compound and melanogenesis progressed for another three days at a temperature of 37° C. and at 5% CO2 atmosphere. Including cell layer and culture supernatant total melanin was extracted using 1.7M KOH with shaking at 300 rpm for approximately 1 hour at RT. We measured melanin content at 405 nm in an absorbance plate reader. The experiment was done in triplicates. We used PTU as a positive control.

[4] = tested on: Human melanocytes moderately pigmented (HEMn-MP); experiment: Cell-pellet depigmentation assay; settings: scale 1 to 5 (5 = dark control cell pellet, 1 = very light brown cell pellet)
Description: Human melanocytes moderately pigmented (HEMn-MP) were seeded in 6-well culture plates at a cell density of 2×10E5 cells/mL and preincubated for three days in a 1:2 mixture of M2-Medium (Clonetics) and Promocell-Medium together ‘Culture medium’ in an incubator at a temperature of 37° C. and at 5% CO2 Atmosphere. Culture medium was exchanged with Culture Medium containing compound and melanogenesis progressed for another three days in an incubator at same incubation conditions as described above. Compound dilutions were done in duplicates. Cells were harvested after trypsinization and pooled in eppendorf-tubes, centrifugated and supernatant removed. The remaining cell pellet was photographed and visually checked for whitening effects. The pellets were scored for their darkness in a scale 1 to 5 (5 corresponding to dark control cell pellet) and 1 corresponding to a very light brown cell pellet.

Row | Compound | Total melanin ([1]; concentration 0.000625 %) [%] | Total melanin ([1]; concentration 0.00125 %) [%] | Total melanin ([1]; concentration 0.0025 %) [%] | Viability ([2]; concentration 0.00025 %) [%] | Viability ([2]; concentration 0.0025 %) [%] | Viability ([2]; concentration 0.025 %) [%] | skin whitening activity (in words) [3] | % melanin inhibition ([3]; concentration 0.0025%) [%] | % melanin inhibition ([3]; concentration 0.005%) [%] | % melanin inhibition ([3]; concentration 0.01%) [%] | Darkness level of the cell pellet ([4]; 0.0025%) | Total melanin ([1]; concentration 0.0152 % (1 mM)) [%] | Darkness level of the cell pellet ([4]; 0.0152%)
1 | COc1cc(C(=O)CO)cc(OC)c1O [Danielone, 2-hydroxy-1-(4-hydroxy-3,5-dimethoxy-phenyl)-ethanone] | 104 | 75 | 66 | 112 | 113 | 51 | very efficient | 1.51 | −40.20 | −49.25 | 2 |  | 
2 | NC(=S)Nc1ccccc1 [PTU, phenylthiourea, reference compound] |  |  |  |  |  |  |  |  |  |  |  | 58 | 1
3 | COc1cc(C(=O)CCO)ccc1O [beta-hydroxypropiovanillon, reference compound] |  |  |  |  |  |  | no activity | 7.45 | 7.45 | 4.26 |  |  | 
